In US20260125371A1, “METHOD FOR INHIBITING CLOSTRIDIOIDES DIFFICILE SPORE GERMINATION” (UNIVERSITY OF NOTRE DAME DU LAC, priority 2022, published 2026):
Converted amounts (≈) assume the structure as drawn. Read-outs that look alike come from different tables or passages of the source.

How the values were obtained:
[1] = test system: Lactobacillus gasseri HM-644; settings: cited from earlier work
E. aerogenes ATCC35029 = assay: MIC against E. aerogenes; type: cell-based; settings: Klebsiella aerogenes; E. aerogenes ATCC35029; read-out: MIC
E. faecium = assay: MIC against E. faecium strains; type: cell-based
K. pneumoniae ATCC700603 = assay: MIC against K. pneumoniae; type: cell-based; settings: Klebsiella pneumoniae; K. pneumoniae ATCC700603; read-out: MIC
[2] = test system: Fusobacterium nucleatum HM-992; settings: cited from earlier work
C. difficile ATCC 43255 [3] = assay: Minimal-bactericidal concentration (MBC); type: cell-based, Clostridioides difficile; settings: MBC/MIC≤4 indicates bactericidal
C. difficile strains = settings: cited from earlier work
[4] = test system: Bacteroides fragilis HM-709; settings: cited from earlier work
P. aeruginosa ATCC27853 = assay: MIC against P. aeruginosa; type: cell-based; settings: Pseudomonas aeruginosa; P. aeruginosa ATCC27853; read-out: MIC
[5] = test system: Lactobacillus reuteri HM-102; settings: cited from earlier work
S. aureus = assay: MIC against S. aureus strains; type: cell-based; settings: Staphylococcus aureus, S. aureus VRS1; read-out: MIC
C. difficile ATCC 43255 [6] = settings: cited from earlier work
Veillonella sp. HM-49 = settings: cited from earlier work
A. baumanii ATCC17961 = assay: MIC against A. baumanii; type: cell-based; settings: Acinetobacter baumannii; A. baumanii ATCC17961; read-out: MIC
[7] = test system: Bifidobacterium longum HM-846; settings: cited from earlier work
[8] = C. difficile strains of Table 4

## CCc1c(Cl)c(O)c(Cl)c(O)c1C(=O)O[C@H]1[C@H](O)[C@H](OC)[C@H](OC/C2=C\C=C\C[C@H](O)/C(C)=C/[C@H](CC)[C@@H](O[C@@H]3OC(C)(C)[C@@H](OC(=O)C(C)C)[C@H](O)[C@@H]3O)/C(C)=C/C(C)=C/C[C@@H]([C@@H](C)O)OC2=O)O[C@@H]1C [FDX, fidaxomicin]
[1]
  MIC: 2 mg/L (≈ 1.89 µM)
E. aerogenes ATCC35029
  MIC: > 128 mg/L
E. faecium; E. faecium 106 (Van R)
  MIC: >16 mg/L
E. faecium; Enterococcus faecium, read-out: MIC
  MIC: > 16 mg/L
K. pneumoniae ATCC700603
  MIC: > 128 mg/L
[2]
  MIC: <0.06 mg/L
C. difficile ATCC 43255 [3]
  bactericidal or bacteriostatic: bactericidal
C. difficile strains; 101 C. difficile strains
  IMIC50 (101 strains): 0.06 µg/mL
  MIC90 (101 strains): 0.25 mg/L (≈ 0.236 µM)
C. difficile strains; C. difficile 23828, resistant to FDX
  MIC: >8 mg/L
C. difficile strains; C. difficile 24531, resistant to VAN
  MIC: 0.01 mg/L (≈ 0.00945 µM)
C. difficile strains; C. difficile 26675, resistant to MTZ
  MIC: 4 mg/L (≈ 3.78 µM)
C. difficile strains; C. difficile BAA-1803
  MIC: 1 mg/L (≈ 0.945 µM)
C. difficile strains; C. difficile BAA-1870
  MIC: 0.25 mg/L (≈ 0.236 µM)
C. difficile strains; C. difficile NR49292
  MIC: 0.5 mg/L (≈ 0.473 µM)
C. difficile strains; C. difficile NR49294
  MIC: 0.01 mg/L (≈ 0.00945 µM)
C. difficile strains; C. difficile NR49302
  MIC: 0.03 mg/L (≈ 0.0284 µM)
C. difficile strains; C. difficile NR49305
  MIC: 0.01 mg/L (≈ 0.00945 µM)
C. difficile strains; C. difficile NR49310
  MIC: ≤0.01 mg/L
C. difficile strains; C. difficile NR49318
  MIC: 0.125 mg/L (≈ 0.118 µM)
C. difficile strains; [8]
  MIC50: 0.06 mg/L (≈ 0.0567 µM)
  MIC90: 0.25 mg/L (≈ 0.236 µM)
C. difficile strains; strain ATCC43598
  MIC: 0.01 mg/L (≈ 0.00945 µM)
C. difficile strains; strain BAA-1801
  MIC: 0.125 mg/L (≈ 0.118 µM)
C. difficile strains; strain BAA-1803
  MIC: 1 mg/L (≈ 0.945 µM)
C. difficile strains; strain BAA-1804
  MIC: 0.125 mg/L (≈ 0.118 µM)
C. difficile strains; strain BAA-1812
  MIC: 0.015 mg/L (≈ 0.0142 µM)
C. difficile strains; strain BAA-1814
  MIC: 0.03 mg/L (≈ 0.0284 µM)
C. difficile strains; strain BAA-1870
  MIC: 0.25 mg/L (≈ 0.236 µM)
C. difficile strains; strain HM-88
  MIC: 0.03 mg/L (≈ 0.0284 µM)
C. difficile strains; strain HM-89
  MIC: 0.03 mg/L (≈ 0.0284 µM)
C. difficile strains; strain HM-745
  MIC: 0.125 mg/L (≈ 0.118 µM)
C. difficile strains; strain HM-746
  MIC: ≤0.03 mg/L
C. difficile strains; strain HM-747
  MIC: 0.06 mg/L (≈ 0.0567 µM)
C. difficile strains; strain NR49292
  MIC: 0.5 mg/L (≈ 0.473 µM)
C. difficile strains; strain NR49294
  MIC: 0.01 mg/L (≈ 0.00945 µM)
C. difficile strains; strain NR49302
  MIC: 0.03 mg/L (≈ 0.0284 µM)
C. difficile strains; strain NR49305
  MIC: 0.01 mg/L (≈ 0.00945 µM)
C. difficile strains; strain NR49310
  MIC: ≤0.01 mg/L
C. difficile strains; strain NR49318
  MIC: 0.125 mg/L (≈ 0.118 µM)
C. difficile strains; strain NR-13427
  MIC: 0.03 mg/L (≈ 0.0284 µM)
C. difficile strains; strain NR-13428
  MIC: ≤0.03 mg/L
C. difficile strains; strain NR-13429
  MIC: 0.25 mg/L (≈ 0.236 µM)
C. difficile strains; strain NR-13430
  MIC: ≤0.03 mg/L
C. difficile strains; strain NR-13431
  MIC: 0.125 mg/L (≈ 0.118 µM)
C. difficile strains; strain NR-13433
  MIC: 0.125 mg/L (≈ 0.118 µM)
C. difficile strains; strain NR-13434
  MIC: 0.06 mg/L (≈ 0.0567 µM)
C. difficile strains; strain NR-13435
  MIC: ≤0.03 mg/L
C. difficile strains; strain NR-13436
  MIC: 0.125 mg/L (≈ 0.118 µM)
C. difficile strains; strain NR-13437
  MIC: 0.25 mg/L (≈ 0.236 µM)
C. difficile strains; strain NR-13438
  MIC: 0.06 mg/L (≈ 0.0567 µM)
C. difficile strains; strain NR-13553
  MIC: ≤0.03 mg/L
C. difficile strains; strain NR-32882
  MIC: 0.06 mg/L (≈ 0.0567 µM)
C. difficile strains; strain NR-32883
  MIC: 0.125 mg/L (≈ 0.118 µM)
C. difficile strains; strain NR-32884
  MIC: 0.03 mg/L (≈ 0.0284 µM)
C. difficile strains; strain NR-32885
  MIC: 0.25 mg/L (≈ 0.236 µM)
C. difficile strains; strain NR-32886
  MIC: 0.03 mg/L (≈ 0.0284 µM)
C. difficile strains; strain NR-32887
  MIC: 0.125 mg/L (≈ 0.118 µM)
C. difficile strains; strain NR-32888
  MIC: 0.03 mg/L (≈ 0.0284 µM)
C. difficile strains; strain NR-32889
  MIC: 0.25 mg/L (≈ 0.236 µM)
C. difficile strains; strain NR-32890
  MIC: 0.06 mg/L (≈ 0.0567 µM)
C. difficile strains; strain NR-32891
  MIC: 0.03 mg/L (≈ 0.0284 µM)
C. difficile strains; strain NR-32892
  MIC: 0.03 mg/L (≈ 0.0284 µM)
C. difficile strains; strain NR-32895
  MIC: 0.03 mg/L (≈ 0.0284 µM)
C. difficile strains; strain NR-32896
  MIC: 0.03 mg/L (≈ 0.0284 µM)
C. difficile strains; strain NR-32897
  MIC: 0.03 mg/L (≈ 0.0284 µM)
C. difficile strains; strain NR-32900
  MIC: 0.03 mg/L (≈ 0.0284 µM)
C. difficile strains; strain NR-32903
  MIC: 0.03 mg/L (≈ 0.0284 µM)
C. difficile strains; strain NR-32904
  MIC: 0.03 mg/L (≈ 0.0284 µM)
C. difficile strains; strain NR-49277
  MIC: 0.06 mg/L (≈ 0.0567 µM)
C. difficile strains; strain NR-49278
  MIC: 0.25 mg/L (≈ 0.236 µM)
C. difficile strains; strain NR-49279
  MIC: 0.25 mg/L (≈ 0.236 µM)
C. difficile strains; strain NR-49280
  MIC: 0.125 mg/L (≈ 0.118 µM)
C. difficile strains; strain NR-49281
  MIC: 0.25 mg/L (≈ 0.236 µM)
C. difficile strains; strain NR-49282
  MIC: 0.06 mg/L (≈ 0.0567 µM)
C. difficile strains; strain NR-49283
  MIC: 0.03 mg/L (≈ 0.0284 µM)
C. difficile strains; strain NR-49284
  MIC: 0.06 mg/L (≈ 0.0567 µM)
C. difficile strains; strain NR-49285
  MIC: 0.06 mg/L (≈ 0.0567 µM)
C. difficile strains; strain NR-49286
  MIC: 0.25 mg/L (≈ 0.236 µM)
C. difficile strains; strain NR-49287
  MIC: 0.25 mg/L (≈ 0.236 µM)
C. difficile strains; strain NR-49288
  MIC: 0.25 mg/L (≈ 0.236 µM)
C. difficile strains; strain NR-49289
  MIC: 0.03 mg/L (≈ 0.0284 µM)
C. difficile strains; strain NR-49290
  MIC: 0.06 mg/L (≈ 0.0567 µM)
C. difficile strains; strain NR-49291
  MIC: 0.25 mg/L (≈ 0.236 µM)
C. difficile strains; strain NR-49293
  MIC: ≤0.03 mg/L
C. difficile strains; strain NR-49295
  MIC: ≤0.03 mg/L
C. difficile strains; strain NR-49296
  MIC: ≤0.03 mg/L
C. difficile strains; strain NR-49297
  MIC: 0.0125 mg/L (≈ 0.0118 µM)
C. difficile strains; strain NR-49298
  MIC: 0.125 mg/L (≈ 0.118 µM)
C. difficile strains; strain NR-49299
  MIC: 0.125 mg/L (≈ 0.118 µM)
C. difficile strains; strain NR-49300
  MIC: 0.03 mg/L (≈ 0.0284 µM)
C. difficile strains; strain NR-49301
  MIC: 0.03 mg/L (≈ 0.0284 µM)
C. difficile strains; strain NR-49303
  MIC: 0.03 mg/L (≈ 0.0284 µM)
C. difficile strains; strain NR-49304
  MIC: 0.06 mg/L (≈ 0.0567 µM)
C. difficile strains; strain NR-49306
  MIC: 0.03 mg/L (≈ 0.0284 µM)
C. difficile strains; strain NR-49307
  MIC: 0.03 mg/L (≈ 0.0284 µM)
C. difficile strains; strain NR-49308
  MIC: 0.125 mg/L (≈ 0.118 µM)
C. difficile strains; strain NR-49309
  MIC: 0.03 mg/L (≈ 0.0284 µM)
C. difficile strains; strain NR-49311
  MIC: 0.03 mg/L (≈ 0.0284 µM)
C. difficile strains; strain NR-49312
  MIC: 0.125 mg/L (≈ 0.118 µM)
C. difficile strains; strain NR-49313
  MIC: 0.03 mg/L (≈ 0.0284 µM)
C. difficile strains; strain NR-49314
  MIC: 0.25 mg/L (≈ 0.236 µM)
C. difficile strains; strain NR-49315
  MIC: 0.06 mg/L (≈ 0.0567 µM)
C. difficile strains; strain NR-49316
  MIC: 0.125 mg/L (≈ 0.118 µM)
C. difficile strains; strain NR-49317
  MIC: 0.06 mg/L (≈ 0.0567 µM)
C. difficile strains; strain NR-49319
  MIC: 0.125 mg/L (≈ 0.118 µM)
C. difficile strains; strain NR-49320
  MIC: 0.125 mg/L (≈ 0.118 µM)
C. difficile strains; strain NR-49321
  MIC: 0.125 mg/L (≈ 0.118 µM)
C. difficile strains; strain NR-49323
  MIC: ≤0.03 mg/L
C. difficile strains; strain NR-49324
  MIC: 0.06 mg/L (≈ 0.0567 µM)
C. difficile strains; strain NR-49325
  MIC: 0.03 mg/L (≈ 0.0284 µM)
C. difficile strains; strain NR-49326
  MIC: 0.03 mg/L (≈ 0.0284 µM)
C. difficile strains; strain NR-49327
  MIC: 0.03 mg/L (≈ 0.0284 µM)
C. difficile strains; strain NR-49328
  MIC: 0.03 mg/L (≈ 0.0284 µM)
C. difficile strains; strain NR-49329
  MIC: 0.03 mg/L (≈ 0.0284 µM)
C. difficile strains; strain RMA23691
  MIC: 4 mg/L (≈ 3.78 µM)
C. difficile strains; strain RMA23828
  MIC: >8 mg/L
C. difficile strains; strain RMA24531
  MIC: 0.01 mg/L (≈ 0.00945 µM)
C. difficile strains; strain RMA24923
  MIC: 0.06 mg/L (≈ 0.0567 µM)
C. difficile strains; strain RMA26675
  MIC: 4 mg/L (≈ 3.78 µM)
C. difficile strains; strain RMA27081
  MIC: >8 mg/L
C. difficile strains; strain RMA27173
  MIC: 0.01 mg/L (≈ 0.00945 µM)
[4]
  MIC: >32 mg/L
P. aeruginosa ATCC27853
  MIC: > 128 mg/L
[5]
  MIC: >32 mg/L
S. aureus
  MIC: 64 mg/L (≈ 60.5 µM)
C. difficile ATCC 43255 [6]; C. difficile ATCC43255
  MIC: 0.06 mg/L (≈ 0.0567 µM)
C. difficile ATCC 43255 [6]; strain ATCC43255
  MIC: 0.06 mg/L (≈ 0.0567 µM)
Veillonella sp. HM-49
  MIC: 8 mg/L (≈ 7.56 µM)
A. baumanii ATCC17961
  MIC: > 128 mg/L
[7]
  MIC: <0.01 mg/L
